Activity calls are given as the source filed them.
Key:
Format in all cases: functional
[1] = viability of PTEN-deleted HCT116 cells – cell-based, HCT116 PTEN knockout, dose response (AID 1047);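 further: HCT116 colon tumor cells with PTEN knocked out; cells exposed to compound for 60 hours before readout; potency for loss of cell viability measured by luminescence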
[2] = target: T1, Sentrin-specific protease 6 (Homo sapiens, UniProt Q9GZR1);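 further: Luminescence-based dose-response confirmatory assay of SENP6 inhibition, following up an ultra-high-throughput screen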
T1 sequence (Q9GZR1 whole entry): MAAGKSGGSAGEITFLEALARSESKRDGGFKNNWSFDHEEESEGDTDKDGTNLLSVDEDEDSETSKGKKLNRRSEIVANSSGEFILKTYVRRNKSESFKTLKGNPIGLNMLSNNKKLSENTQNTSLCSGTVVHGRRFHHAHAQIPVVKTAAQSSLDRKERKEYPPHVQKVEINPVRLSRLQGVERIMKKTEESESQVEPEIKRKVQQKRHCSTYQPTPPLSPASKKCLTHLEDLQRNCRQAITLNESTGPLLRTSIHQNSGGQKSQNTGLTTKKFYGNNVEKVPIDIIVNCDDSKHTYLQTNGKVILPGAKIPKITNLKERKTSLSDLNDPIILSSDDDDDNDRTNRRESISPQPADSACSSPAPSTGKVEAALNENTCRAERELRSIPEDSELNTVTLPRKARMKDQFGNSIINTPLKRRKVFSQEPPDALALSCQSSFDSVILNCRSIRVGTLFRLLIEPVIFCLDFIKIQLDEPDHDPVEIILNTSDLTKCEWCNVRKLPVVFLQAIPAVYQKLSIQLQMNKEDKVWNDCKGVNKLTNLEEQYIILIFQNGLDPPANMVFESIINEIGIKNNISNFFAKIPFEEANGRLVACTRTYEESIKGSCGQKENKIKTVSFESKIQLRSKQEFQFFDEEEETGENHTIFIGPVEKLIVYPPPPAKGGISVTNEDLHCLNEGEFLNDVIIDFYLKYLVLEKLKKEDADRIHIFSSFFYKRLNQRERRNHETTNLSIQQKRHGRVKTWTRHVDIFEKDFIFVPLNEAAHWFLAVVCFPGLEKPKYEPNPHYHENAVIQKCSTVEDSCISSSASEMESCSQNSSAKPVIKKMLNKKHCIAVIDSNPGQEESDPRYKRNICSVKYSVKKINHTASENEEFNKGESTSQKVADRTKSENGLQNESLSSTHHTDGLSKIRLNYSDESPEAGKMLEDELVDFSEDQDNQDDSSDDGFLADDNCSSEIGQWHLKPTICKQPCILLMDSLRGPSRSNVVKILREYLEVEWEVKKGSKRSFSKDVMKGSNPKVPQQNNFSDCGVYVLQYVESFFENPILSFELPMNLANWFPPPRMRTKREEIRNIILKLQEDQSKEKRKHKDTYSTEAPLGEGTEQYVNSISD

Caspase-3 = target: T2, Caspase-3 (Homo sapiens, UniProt P42574);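 further: Dose-response selectivity test against caspase-3 for candidate inhibitors of sentrin-specific proteases (SENPs)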
T2 sequence (P42574 whole entry): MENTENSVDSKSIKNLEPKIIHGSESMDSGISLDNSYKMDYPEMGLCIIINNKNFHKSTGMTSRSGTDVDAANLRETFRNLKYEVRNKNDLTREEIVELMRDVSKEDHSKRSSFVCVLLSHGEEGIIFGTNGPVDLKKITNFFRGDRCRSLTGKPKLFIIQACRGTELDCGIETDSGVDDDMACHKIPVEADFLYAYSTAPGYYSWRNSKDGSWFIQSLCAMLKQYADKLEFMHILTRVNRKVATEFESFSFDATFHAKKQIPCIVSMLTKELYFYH

[3] = target: Proto-oncogene tyrosine-protein kinase Src (Homo sapiens, UniProt P12931);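 further: SRC entry within a kinome-wide kinase profiling panel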
[4] = target: 3-phosphoinositide-dependent protein kinase 1 (Homo sapiens, UniProt O15530);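 further: value comes from the Navigating the Kinome panel, PDPK1 member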
3-phosphoinositide-dependent protein kinase 1, sequence (O15530 whole entry): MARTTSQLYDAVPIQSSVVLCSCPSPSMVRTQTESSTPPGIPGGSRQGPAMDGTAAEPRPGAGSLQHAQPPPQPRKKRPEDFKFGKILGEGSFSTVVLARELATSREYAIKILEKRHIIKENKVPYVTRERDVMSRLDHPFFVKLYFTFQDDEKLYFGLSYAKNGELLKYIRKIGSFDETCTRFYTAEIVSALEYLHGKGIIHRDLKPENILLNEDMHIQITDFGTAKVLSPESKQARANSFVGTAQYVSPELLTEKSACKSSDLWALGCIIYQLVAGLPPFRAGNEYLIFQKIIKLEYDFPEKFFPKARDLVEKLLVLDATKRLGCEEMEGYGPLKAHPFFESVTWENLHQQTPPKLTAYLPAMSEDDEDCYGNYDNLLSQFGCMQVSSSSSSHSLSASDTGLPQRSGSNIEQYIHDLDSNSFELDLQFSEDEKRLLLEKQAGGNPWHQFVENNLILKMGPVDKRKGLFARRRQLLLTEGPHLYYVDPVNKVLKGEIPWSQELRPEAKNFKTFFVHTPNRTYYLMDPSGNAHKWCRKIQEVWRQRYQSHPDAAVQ

[5] = target: MAP kinase-activated protein kinase 2 (Homo sapiens, UniProt P49137);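 further: measured as one member of a kinome-wide kinase panel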
MAP kinase-activated protein kinase 2, sequence (P49137 whole entry): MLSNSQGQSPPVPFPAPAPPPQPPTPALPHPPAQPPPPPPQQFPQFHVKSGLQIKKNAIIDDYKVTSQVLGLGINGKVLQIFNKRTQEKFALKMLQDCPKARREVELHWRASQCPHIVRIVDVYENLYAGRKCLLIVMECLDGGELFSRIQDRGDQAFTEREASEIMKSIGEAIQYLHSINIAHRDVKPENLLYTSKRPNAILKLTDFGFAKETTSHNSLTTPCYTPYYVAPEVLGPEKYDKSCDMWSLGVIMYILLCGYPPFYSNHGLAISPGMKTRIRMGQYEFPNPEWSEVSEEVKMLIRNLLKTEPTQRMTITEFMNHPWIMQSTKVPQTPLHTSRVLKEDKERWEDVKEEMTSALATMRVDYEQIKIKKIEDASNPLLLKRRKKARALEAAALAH

[6] = target: Cyclin-dependent kinase 1 (Homo sapiens, UniProt P06493);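 further: Kinome-wide panel profiling, with the target listed as panel member CDC2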
Cyclin-dependent kinase 1, sequence (P06493 whole entry): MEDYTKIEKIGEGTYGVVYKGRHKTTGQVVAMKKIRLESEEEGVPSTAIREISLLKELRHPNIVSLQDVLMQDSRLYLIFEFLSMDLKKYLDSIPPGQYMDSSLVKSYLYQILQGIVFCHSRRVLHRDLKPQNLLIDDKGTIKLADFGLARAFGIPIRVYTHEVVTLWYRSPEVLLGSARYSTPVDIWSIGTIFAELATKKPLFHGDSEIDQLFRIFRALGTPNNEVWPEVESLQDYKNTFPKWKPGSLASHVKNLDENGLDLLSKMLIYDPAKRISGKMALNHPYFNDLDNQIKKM

Aurora kinase B = Aurora kinase B (Homo sapiens, UniProt Q96GD4)
Aurora kinase B, sequence (Q96GD4 whole entry): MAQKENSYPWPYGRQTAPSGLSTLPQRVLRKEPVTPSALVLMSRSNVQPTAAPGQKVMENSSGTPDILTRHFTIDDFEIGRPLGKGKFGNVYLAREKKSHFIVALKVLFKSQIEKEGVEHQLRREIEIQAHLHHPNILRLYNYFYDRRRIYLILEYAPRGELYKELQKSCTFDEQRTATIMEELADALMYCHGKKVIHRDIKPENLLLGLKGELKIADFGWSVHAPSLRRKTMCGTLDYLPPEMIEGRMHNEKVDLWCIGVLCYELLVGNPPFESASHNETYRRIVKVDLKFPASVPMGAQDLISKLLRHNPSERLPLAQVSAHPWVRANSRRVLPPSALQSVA

[7] = target: Mitogen-activated protein kinase 8 (Homo sapiens, UniProt P45983);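 further: value comes from one member of a kinome-wide kinase profiling panel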
[8] = target: Inhibitor of nuclear factor kappa-B kinase subunit beta (Homo sapiens, UniProt O14920)
Inhibitor of nuclear factor kappa-B kinase subunit beta, sequence (O14920 whole entry): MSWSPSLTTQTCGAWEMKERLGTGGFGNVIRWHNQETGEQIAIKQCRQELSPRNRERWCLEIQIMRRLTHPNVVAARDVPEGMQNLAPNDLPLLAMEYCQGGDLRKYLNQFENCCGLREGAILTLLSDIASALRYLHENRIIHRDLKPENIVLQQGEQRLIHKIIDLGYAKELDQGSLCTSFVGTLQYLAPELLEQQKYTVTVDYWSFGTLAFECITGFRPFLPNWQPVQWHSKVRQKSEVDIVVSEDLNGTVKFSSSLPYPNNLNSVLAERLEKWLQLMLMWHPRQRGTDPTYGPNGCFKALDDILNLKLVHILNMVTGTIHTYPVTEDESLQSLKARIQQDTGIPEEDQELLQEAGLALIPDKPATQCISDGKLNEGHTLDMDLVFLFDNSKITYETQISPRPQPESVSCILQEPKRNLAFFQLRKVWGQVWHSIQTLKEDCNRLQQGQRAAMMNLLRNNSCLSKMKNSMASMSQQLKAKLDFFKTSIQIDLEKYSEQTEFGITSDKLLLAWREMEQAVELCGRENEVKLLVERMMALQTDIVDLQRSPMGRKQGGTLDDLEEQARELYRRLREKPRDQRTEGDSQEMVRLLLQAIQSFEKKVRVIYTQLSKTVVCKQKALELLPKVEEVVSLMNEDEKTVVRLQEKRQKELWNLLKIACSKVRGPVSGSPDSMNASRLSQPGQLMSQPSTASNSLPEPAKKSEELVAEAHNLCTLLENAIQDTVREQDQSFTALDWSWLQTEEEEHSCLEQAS

[9] = target: Cyclin-dependent kinase 5 (Homo sapiens, UniProt Q00535);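 further: CDK5 measured as one member of a kinase profiling panel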
Cyclin-dependent kinase 5, sequence (Q00535 whole entry): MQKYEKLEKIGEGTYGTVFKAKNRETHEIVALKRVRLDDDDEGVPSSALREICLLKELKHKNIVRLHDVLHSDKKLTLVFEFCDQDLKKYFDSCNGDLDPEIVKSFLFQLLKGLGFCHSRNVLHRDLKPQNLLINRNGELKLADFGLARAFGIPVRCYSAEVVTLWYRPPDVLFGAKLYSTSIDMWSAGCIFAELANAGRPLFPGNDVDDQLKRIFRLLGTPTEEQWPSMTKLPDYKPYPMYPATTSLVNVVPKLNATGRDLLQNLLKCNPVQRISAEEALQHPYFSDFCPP

[10] = target: BDNF/NT-3 growth factors receptor (Homo sapiens, UniProt Q16620);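 further: NTRK2 measured as one member of a broad kinome-wide kinase profiling panel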
BDNF/NT-3 growth factors receptor, sequence (Q16620 whole entry): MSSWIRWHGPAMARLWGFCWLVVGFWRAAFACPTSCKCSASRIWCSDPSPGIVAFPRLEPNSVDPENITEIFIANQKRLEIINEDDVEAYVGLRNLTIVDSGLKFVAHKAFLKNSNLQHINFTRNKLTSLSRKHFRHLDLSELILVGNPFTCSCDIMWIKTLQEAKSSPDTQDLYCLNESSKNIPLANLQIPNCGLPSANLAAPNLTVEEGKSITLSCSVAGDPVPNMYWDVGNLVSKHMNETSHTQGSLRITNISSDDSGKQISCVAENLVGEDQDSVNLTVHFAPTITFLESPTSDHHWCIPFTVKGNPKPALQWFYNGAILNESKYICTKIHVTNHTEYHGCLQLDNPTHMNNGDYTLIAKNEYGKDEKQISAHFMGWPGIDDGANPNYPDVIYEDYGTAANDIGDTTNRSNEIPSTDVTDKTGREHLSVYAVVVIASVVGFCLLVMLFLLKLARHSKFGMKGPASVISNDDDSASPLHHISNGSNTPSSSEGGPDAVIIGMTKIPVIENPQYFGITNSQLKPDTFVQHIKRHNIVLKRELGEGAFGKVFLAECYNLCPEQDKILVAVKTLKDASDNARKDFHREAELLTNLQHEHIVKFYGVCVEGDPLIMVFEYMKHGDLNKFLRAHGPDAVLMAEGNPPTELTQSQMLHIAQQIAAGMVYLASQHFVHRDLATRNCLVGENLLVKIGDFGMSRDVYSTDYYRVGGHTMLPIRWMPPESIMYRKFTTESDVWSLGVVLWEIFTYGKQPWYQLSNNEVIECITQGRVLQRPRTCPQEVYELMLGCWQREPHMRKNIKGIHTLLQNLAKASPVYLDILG

[11] = target: Receptor tyrosine-protein kinase erbB-4 (Homo sapiens, UniProt Q15303);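 further: ERBB4 member of a kinome-wide kinase profiling panel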
Receptor tyrosine-protein kinase erbB-4, sequence (Q15303 whole entry): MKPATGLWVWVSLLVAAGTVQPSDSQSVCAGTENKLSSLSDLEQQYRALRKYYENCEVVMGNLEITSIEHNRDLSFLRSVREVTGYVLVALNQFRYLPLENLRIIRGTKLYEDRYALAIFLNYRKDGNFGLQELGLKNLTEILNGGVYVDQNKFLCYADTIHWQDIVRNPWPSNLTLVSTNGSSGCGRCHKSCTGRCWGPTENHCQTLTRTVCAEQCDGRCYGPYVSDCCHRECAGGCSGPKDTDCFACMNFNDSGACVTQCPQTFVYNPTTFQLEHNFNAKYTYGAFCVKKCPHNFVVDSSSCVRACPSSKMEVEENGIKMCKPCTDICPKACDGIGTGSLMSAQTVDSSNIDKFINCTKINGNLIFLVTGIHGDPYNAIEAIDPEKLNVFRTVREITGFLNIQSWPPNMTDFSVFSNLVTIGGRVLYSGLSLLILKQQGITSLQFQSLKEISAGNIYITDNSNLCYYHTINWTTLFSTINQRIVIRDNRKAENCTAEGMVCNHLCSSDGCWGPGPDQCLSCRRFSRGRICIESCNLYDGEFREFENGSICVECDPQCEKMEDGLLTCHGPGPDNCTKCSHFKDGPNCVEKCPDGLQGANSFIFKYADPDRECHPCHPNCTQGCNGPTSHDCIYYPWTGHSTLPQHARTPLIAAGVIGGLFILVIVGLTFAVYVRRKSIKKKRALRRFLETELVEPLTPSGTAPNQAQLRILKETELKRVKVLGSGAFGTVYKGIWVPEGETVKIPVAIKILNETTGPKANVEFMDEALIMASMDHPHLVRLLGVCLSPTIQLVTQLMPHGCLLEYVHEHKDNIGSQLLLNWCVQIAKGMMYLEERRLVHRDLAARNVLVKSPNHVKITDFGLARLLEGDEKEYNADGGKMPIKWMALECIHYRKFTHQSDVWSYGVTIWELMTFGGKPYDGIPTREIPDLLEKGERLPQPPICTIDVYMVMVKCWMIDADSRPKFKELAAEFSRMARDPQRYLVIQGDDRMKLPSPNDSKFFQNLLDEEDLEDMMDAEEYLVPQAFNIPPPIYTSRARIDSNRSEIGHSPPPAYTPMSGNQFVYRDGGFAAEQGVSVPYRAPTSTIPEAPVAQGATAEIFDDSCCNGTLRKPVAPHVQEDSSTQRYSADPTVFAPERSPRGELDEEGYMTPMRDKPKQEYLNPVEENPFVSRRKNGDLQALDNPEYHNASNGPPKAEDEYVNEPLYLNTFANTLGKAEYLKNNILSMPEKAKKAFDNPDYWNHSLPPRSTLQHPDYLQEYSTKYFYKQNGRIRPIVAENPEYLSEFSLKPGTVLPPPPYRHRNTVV

[12] = protection from phage-mediated lysis, alamar blue read-out – E. coli UTI89, K1F phage, bacterial capsule biogenesis inhibitors (AID 488966)
HEK293 = experiment: membrane integrity loss in HEK cells – cell-based, fluorescence, cytotoxicity control for IDE activator project, dose response (AID 588440); conditions: Homo sapiens;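 further: cytotoxicity by LDH release measuring loss of membrane integrity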
[13] = reduced cellular PGC1a acetyl-lysine signal – cell-based, cherry-picked samples, dose response (AID 720514);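 further: potency may reflect raised or lowered acetylation signal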

CCC(C)NC(=O)c1c(N)n(CCCOC)c2nc3ccccc3nc12 (stereo unspecified)
active: EC50 [1] 33.2 µM | IC50 [2] 0.802 µM | IC50 (Caspase-3) 6.15 µM

CC(=NNC(=N)N)c1cc(NC(=O)NCCCCCCNC(=O)Nc2cc(C(C)=NNC(=N)N)cc(C(C)=NNC(=N)N)c2)cc(C(C)=NNC(=N)N)c1
inactive: Ki [3] > 5.01 µM | Ki [4] > 3.98 µM | Ki [7] > 3.16 µM | Ki [8] > 3.16 µM | Ki [10] > 5.01 µM | Ki [11] > 3.98 µM
active: Ki [5] 0.631 µM | Ki [6] 0.631 µM | Ki (Aurora kinase B) 1.26 µM | Ki [9] 2 µM

Cc1cc(N)c2cc(NC(=O)/C=C/c3ccccc3Cl)ccc2n1
active: IC50 [12] > 75 µM | IC50 (HEK293) 2.63 µM | AC50 [13] 1.97 µM

Source: ChEMBL document CHEMBL1201862, “PubChem BioAssay data set” (2004)
